GI50 and TGI data for 7 compounds are collected here from PubChem BioAssay (NCI).

Experiment in all cases: DTP human tumour cell line panel, 48 h
The subject of assay [1] is NCI-H460 lung.
Assay [2] concerns MCF7 breast.
For assay [3], the system named is UACC-62 melanoma.
Assay [4] relates to HCC-2998 colon.
For assay [5], the system named is A498 renal.
The subject of assay [6] is HL-60(TB) leukemia.
Assay [7] relates to NCI-H23 lung.
Assay [8] relates to NCI-H522 lung.
Assay [9] concerns SK-MEL-5 melanoma.
In assay [10] the test system is OVCAR-8 ovarian.

Values joined by “and” are separate entries in the source; they are usually repeats but may differ in a detail not shown here. Equal values may be shown once.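 Test compounds were applied to cells in 96-well plates for 48 hours at 5 doses. The concentration for 50% growth inhibition is given as GI50. TGI denotes the concentration required for complete inhibition of growth.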

Consider `C=CC(=O)Nc1cccc(Nc2nc(Nc3ccc(N4CCN(C(C)=O)CC4)cc3OC)ncc2C(F)(F)F)c1`, for which the GI50 in assay [1] is 3.87 µM and 3.24 µM; in [2] it was 1410 nM and 933 nM; in assay [3], 2.7 µM; in assay [4], 2.58 µM and 4.62 µM; in [5], 2 µM and 0.802 µM; in assay [6] it was 1260 nM and 2260 nM. Besides, the GI50 was 5.27 µM and 5.47 µM in [7]; 484 nM and 506 nM in assay [8]; 4.12 µM and 4.3 µM in assay [9]; 4.05 µM and 3.51 µM in assay [10]. The TGI in [1] was > 100 µM; in assay [2] it was > 100 µM; in assay [3] it was 22.6 µM; in assay [4] it was > 10 µM and 22.4 µM; in assay [5], 6.01 µM and 2.94 µM; in assay [6], > 34 µM. In addition, the TGI in assay [7] is > 10 µM and 30 µM; in [8], 6.73 µM and 7.66 µM; in [9], > 10 µM and 17.9 µM; in [10] it was > 10 µM and 98.2 µM.

`CCC(=O)OCN1C(=O)C=CC1=O`: the GI50 in assay [1] was 21.3 µM; in assay [5], > 100 µM; in assay [6] it was 17300 nM; in [7], 20.1 µM; in [8], 2270 nM; in assay [9], 18.9 µM. The total growth inhibition concentration (TGI) in assay [1] is 44.2 µM and 33.7 µM; in assay [2], 40.9 µM and 39.7 µM; in assay [3], 31.8 µM and 30.7 µM; in assay [4], 34.1 µM and 33.6 µM; in [5] it was > 100 µM; in assay [6], 70.4 µM and 8.36 µM. Moreover, the TGI is 39.6 µM and 34.7 µM in assay [7]; 4.64 µM and 4.58 µM in assay [8]; 42.5 µM and > 58.1 µM in [9]; 35 µM and 37 µM in assay [10].

Turning to `C=C1C(OCCO)OC2O[C@]3(C)CCC4[C@H](C)CCC1C24OO3` (stereo not given in full), the GI50 was > 100 µM in [1]; 17400 nM in [2]; 42.7 µM in assay [3]; > 100 µM in assay [4]; > 100 µM in assay [5]; 3100 nM in assay [6]. Besides, the GI50 is 7.46 µM in [7], 4930 nM in [8], 23.8 µM in assay [9] and 2.16 µM in assay [10]. Besides, the TGI in assay [1] is > 100 µM; in [2] it was > 100 µM; in assay [3], > 100 µM; in assay [4] it was > 100 µM; in [5] it was > 100 µM; in assay [6], 15.6 µM. The TGI in assay [7] is 53.6 µM; in [8] it was 19.2 µM; in [9], > 100 µM; in assay [10], 12.5 µM.

For `COC(=O)[C@]1(C)CC[C@]2(C)CC[C@]3(C)C(=CC(=O)[C@@H]4[C@@]5(C)CCC(=O)NC(C)(C)[C@@H]5CC[C@]43C)[C@@H]2C1`, the GI50 in assay [1] is 20.1 µM; in assay [2] it was 13300 nM; in [3] it was 15.3 µM; in assay [4], 18.4 µM; in assay [5] it was 21.4 µM; in [6] it was 16200 nM. Further, the GI50 in assay [7] was 31 µM; in [8], 18200 nM; in [9], 14.7 µM; in assay [10] it was 29.2 µM. In addition, the TGI stood at 58.8 µM in assay [1]; 43.5 µM in [2]; 38.2 µM in assay [3]; 38.7 µM in assay [4]; 46.4 µM in assay [5]; 41.6 µM in assay [6]. The TGI in [7] is > 100 µM; in [8], 69.3 µM; in assay [9] it was 28.9 µM; in [10] it was > 100 µM.

On to `COc1cc2c3c(n(CCCN4CCN(CCO)CC4)c(=O)c2cc1OC)-c1cc2c(cc1C3=O)OCO2`, for which the GI50 is 0.972 µM in assay [1]; 873 nM in assay [2]; 6.25 µM in assay [4]; 18.2 µM in assay [5]; 6350 nM in [6]; 4.77 µM in assay [7]. In addition, the GI50 in assay [8] was > 33000 nM; in [9] it was 13 µM; in assay [10], 7.62 µM. Also, the TGI was 18.4 µM in assay [1]; 17.5 µM in [2]; > 33.9 µM in assay [3]; 20.4 µM in assay [4]; 81.6 µM in assay [5]; > 41.7 µM in assay [6]. Moreover, the TGI is 16.5 µM in assay [7], > 51.2 µM in assay [8], 26 µM in assay [9] and 28.3 µM in assay [10].

Turning to `COC(=O)CCc1c(/C=C2\N=C(c3ccc[nH]3)C=C2OC)[nH]c(C)c1C(=O)OCc1ccccc1`, the GI50 is 0.958 µM in assay [1]; 313 nM in [2]; 0.216 µM in assay [3]; 0.404 µM in assay [4]; 0.289 µM in assay [5]; 446 nM in assay [6]. Besides, the GI50 is 0.795 µM in [7], 653 nM in [8], 0.47 µM in assay [9] and 0.432 µM in assay [10]. Besides, the TGI in assay [1] is > 61.9 µM; in assay [2], 4.78 µM; in assay [3] it was 0.491 µM; in assay [4], 6.04 µM; in assay [5], 3.37 µM; in assay [6], 2.42 µM. Also, the TGI turned out to be 4.31 µM in assay [7], 2.88 µM in [8], 1.75 µM in assay [9] and 5.75 µM in [10].

As to `COc1ccc(CNC(=O)c2c(C)n([O-])c3cc(F)c(F)cc3[n+]2=O)cc1`, the GI50 in [1] is 13.1 µM; in assay [2], 5720 nM; in assay [3], 15 µM; in [4], 2.07 µM; in assay [5] it was 16.1 µM; in [6], 2640 nM. The GI50 in [7] is 2.38 µM; in assay [8] it was 11500 nM; in assay [9], 12.7 µM; in assay [10], 3.72 µM. The TGI in [1] turned out to be 25.9 µM; in [2] it was 19.3 µM; in [3] it was 28.5 µM; in [4], 5.77 µM; in assay [5], 29.6 µM; in assay [6], 12.2 µM. In addition, the TGI is 10.6 µM in assay [7], 27 µM in assay [8], 25.3 µM in assay [9] and 15.9 µM in [10].
